Laboratory results as given in US9669028B2, “Substituted 5-(pyrazin-2-yl)-1H-pyrazolo [3, 4-B] pyridine and pyrazolo [3, 4-B] pyridine derivatives as protein kinase inhibitors” (Arrien Pharmaceuticals LLC, priority 2011, dated 2017).

How the values were obtained:
Type in all cases: biochemical
[1] = molecular target: LRRK2 (Homo sapiens (Human), UniProt Q5S007); assay: LRRK2 Kinase Assay; conditions: 10 μM ATP
Experimental: (§1) Briefly, specific kinase/substrate pairs along with required cofactors were prepared in reaction buffer; 20 mM Hepes (pH 7.5), 10 mM MgCl2, 1 mM EGTA, 0.02% Brij35, 0.02 mg/ml BSA, 0.1 mM Na3VO4, 2 mM DTT, 1% DMSO. Compounds were delivered into the reaction, followed ˜20 min later by addition of a mixture of ATP (Sigma) and 33P ATP (PerkinElmer) to a final concentration of 10 μM. […] IC50 values and curve fits were obtained using Prism (GraphPad Software). Kinome tree representations were prepared using Kinome Mapper (http://www.reactionbiology.com/apps/kinome/mapper/Launch Kinome.htm).
For the wild type LRRK the 2×LRRK2/ERM (LRRKtide) mixture was prepared in 50 mM Tris pH 8.5, 0.01% BRIJ-35, 10 mM MgCl2, 1 mM EGTA, 0.02% NaN3. […] After 1 hour Kinase Reaction incubation, 5 μL of Detection Mix was added.

[2] = molecular target: LRRK2 G2019S (Homo sapiens (Human), UniProt Q5S007, G2019S); assay: LRRK2 G2019S Kinase Assay; conditions: 10 μM ATP
LRRK2 G2019S, sequence (Q5S007 970-2527 G2019S): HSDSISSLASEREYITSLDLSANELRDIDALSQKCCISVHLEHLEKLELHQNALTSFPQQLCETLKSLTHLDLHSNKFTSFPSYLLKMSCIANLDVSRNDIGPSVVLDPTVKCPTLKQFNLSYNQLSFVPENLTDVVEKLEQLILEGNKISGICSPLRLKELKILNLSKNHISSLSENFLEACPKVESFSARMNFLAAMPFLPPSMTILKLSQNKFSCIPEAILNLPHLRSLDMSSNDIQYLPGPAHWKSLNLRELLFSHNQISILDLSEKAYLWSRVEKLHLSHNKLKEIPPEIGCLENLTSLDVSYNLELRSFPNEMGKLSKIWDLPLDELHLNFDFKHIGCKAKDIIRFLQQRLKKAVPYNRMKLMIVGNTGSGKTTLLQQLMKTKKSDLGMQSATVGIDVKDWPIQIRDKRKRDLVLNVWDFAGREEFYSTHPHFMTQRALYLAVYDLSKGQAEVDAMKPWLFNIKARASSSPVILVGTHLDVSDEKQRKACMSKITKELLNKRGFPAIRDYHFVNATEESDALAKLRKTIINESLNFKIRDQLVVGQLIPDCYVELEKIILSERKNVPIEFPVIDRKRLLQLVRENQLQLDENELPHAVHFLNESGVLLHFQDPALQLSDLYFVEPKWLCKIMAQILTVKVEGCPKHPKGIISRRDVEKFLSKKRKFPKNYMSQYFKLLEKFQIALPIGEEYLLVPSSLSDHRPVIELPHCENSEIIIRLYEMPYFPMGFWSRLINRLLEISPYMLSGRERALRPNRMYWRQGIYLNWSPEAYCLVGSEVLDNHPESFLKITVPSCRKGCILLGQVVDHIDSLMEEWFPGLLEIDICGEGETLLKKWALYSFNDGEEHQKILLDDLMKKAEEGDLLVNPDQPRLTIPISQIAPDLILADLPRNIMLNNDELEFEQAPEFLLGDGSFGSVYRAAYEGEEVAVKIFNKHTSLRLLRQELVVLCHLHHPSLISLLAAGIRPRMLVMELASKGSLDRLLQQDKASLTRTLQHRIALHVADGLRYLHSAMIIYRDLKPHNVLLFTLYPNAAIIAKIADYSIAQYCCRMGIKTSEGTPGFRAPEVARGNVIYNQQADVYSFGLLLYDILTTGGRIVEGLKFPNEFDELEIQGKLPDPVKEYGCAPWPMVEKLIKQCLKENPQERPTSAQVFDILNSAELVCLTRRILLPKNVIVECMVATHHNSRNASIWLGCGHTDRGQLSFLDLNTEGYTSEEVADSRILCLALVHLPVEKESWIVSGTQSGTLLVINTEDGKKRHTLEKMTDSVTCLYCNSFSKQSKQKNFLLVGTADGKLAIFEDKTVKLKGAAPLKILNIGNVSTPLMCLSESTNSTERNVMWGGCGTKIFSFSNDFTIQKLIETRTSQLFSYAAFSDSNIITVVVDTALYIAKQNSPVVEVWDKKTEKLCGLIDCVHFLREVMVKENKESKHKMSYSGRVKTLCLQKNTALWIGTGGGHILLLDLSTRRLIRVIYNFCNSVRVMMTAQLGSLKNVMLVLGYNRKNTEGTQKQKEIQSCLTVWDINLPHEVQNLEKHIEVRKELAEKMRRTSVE
Experimental: Procedure: Enzyme was incubated with substrate peptide in reaction buffer in the presence and absence of test compounds or Staurosporine. All additions were done on ice, followed by the addition of ATP mix. Wells were uniformly mixed using an Eppendorff plate shaker and incubated at 30° C. for 20 min, and stopped by the addition of 5 μl of 3% phosphoric acid. Volume was increased to 100 μl by adding 0.8% phosphoric acid which was then transferred to PC filter mats (Millipore), pre-equilibrated with 70% ethanol and water. Plates were washed thrice with 100 μl 0.8% phosphoric acid and dried for an hour at 60° C. 100 μl scintillation fluid was added into each well and reading taken in Perkin Elmer TOPCOUNT beta counter. […] A validation EC50 curve was generated by plotting CPM for each Staurosporine concentration on y-axis against the Log concentration of Staurosporine (nM) on the x-axis followed by a best fit curve through the points.
After 1 hour Kinase Reaction incubation, 5 μL of Detection Mix was added.

[3] = molecular target: DYRK1A (Homo sapiens (Human), UniProt Q13627); assay: In vitro DYRK1A inhibition assay
Experimental: as §1
The 2×DYRK1A/Ser/Thr 18 mixture was prepared in 50 mM HEPES pH 7.5, 0.01% BRIJ-35, 10 mM MgCl2, 1 mM EGTA.

LRRK2, sequence (Q5S007 970-2527): as the sequence (Q5S007 970-2527 G2019S) above, with S1050G counted along it

| Structure (SMILES) | IC50 [1] | IC50 [2] | IC50 [3] |
| --- | --- | --- | --- |
| Cc1n[nH]c2ncc(NC3CCCN(Cc4ccc(F)c(F)c4)C3)cc12 (stereo not shown) [Compound 26] | > 500 nM | > 500 nM | – |
| Cc1n[nH]c2ncc(NC3CCCN(Cc4ccc(Cl)cc4)C3)cc12 (stereo not shown) [Compound 27, N-(1-(4-Chlorobenzyl)piperidin-3-yl)-3-methyl-1H-pyrazolo[3,4-b]pyridid-5-amine] | > 500 nM | > 500 nM | > 500 nM |
| Cc1n[nH]c2ncc(NC3CCCN(Cc4ccc(Cl)c(Cl)c4)C3)cc12 (stereo not shown) [Compound 28, N-(1-(3,4-Chlorobenzyl)piperidin-3-yl)-3-methyl-1H-pyrazolo[3,4-b]pyridid-5-amine] | > 500 nM | > 500 nM | > 500 nM |
| Cc1n[nH]c2ncc(-c3cncc(OCCN4CCN(C)CC4)n3)cc12 [Compound 33, 5-(6-(2-(4-methylpiperazin-1-yl)ethoxy)pyrazin-2-yl)-3-methyl-1H-pyrazolo[3,4-b]pyridine] | > 500 nM | > 500 nM | > 500 nM |
| Cc1n[nH]c2ncc(-c3cncc(NC(=O)C4CCN(C)CC4)n3)cc12 [Compound 39] | > 500 nM | > 500 nM | > 500 nM |
| Cc1n[nH]c2ncc(-c3cncc(Cl)n3)cc12 [Compound 42, 5-(6-chloropyrazin-2-yl)-3-methyl-1H-pyrazolo[3,4-b]pyridine] | > 1000 nM | > 1000 nM | – |
| Cc1n[nH]c2ncc(-c3cnccn3)cc12 [Compound 45, 3-methyl-5-(pyrazin-2-yl)-1H-pyrazolo[3,4-b]pyridine] | > 1000 nM | > 1000 nM | – |
| Cc1n[nH]c2ncc(-c3nccnc3N3CCCC3)cc12 [Compound 74, 3-methyl-5-(3-(pyrrolidin-1-yl)pyrazin-2-yl)-1H-pyrazolo[3,4-b]pyridine] | > 1000 nM | > 1000 nM | – |
| O=C(c1cncc(-c2cnc3[nH]ccc3c2)n1)N1CCCCC1 [Compound 138, (6-(1H-pyrrolo[2,3-b]pyridin-5-yl)pyrazin-2-yl)(piperidin-1-yl)methanone] | > 500 nM | > 500 nM | – |
| CN1CCN(C(=O)c2cncc(-c3cnc4[nH]ccc4c3)n2)CC1 [Compound 139, (6-(1H-pyrrolo[2,3-b]pyridin-5-yl)pyrazin-2-yl)(4-methylpiperazin-1-yl)methanone] | > 1000 nM | > 1000 nM | – |
| CN1CCC(Nc2cncc(-c3cnc4[nH]ccc4c3)n2)CC1 [Compound 140, N-(1-methylpiperidin-4-yl)-6-(1H-pyrrolo[2,3-b]pyridin-5-yl)pyrazin-2-amine] | < 500 nM | < 500 nM | – |
| CN1CCC(Nc2cncc(-c3cnc4[nH]cc(Cl)c4c3)n2)CC1 [Compound 141, 6-(3-chloro-1H-pyrrolo[2,3-b]pyridin-5-yl)-N-(1-methylpiperidin-4-yl)pyrazin-2-amine] | < 500 nM | < 500 nM | – |
| Cc1n[nH]c2ncc(-c3cccc(CC#N)c3)cc12 [Compound 158, 2-(3-(3-methyl-1H-pyrazolo[3,4-b]pyridin-5-yl)phenyl)acetonitrile] | > 1000 nM | > 1000 nM | – |
| Cc1n[nH]c2ncc(-c3ccc(N4CCN(C)CC4)cc3)cc12 [Compound 161, 3-methyl-5-(4-(4-methylpiperazin-1-yl)phenyl)-1H-pyrazolo[3,4-b]pyridine] | > 1000 nM | > 1000 nM | – |
| Cc1n[nH]c2ncc(Nc3cccc(CN4CCN(CCO)CC4)c3)cc12 [Compound 164, 2-(4-(3-((3-methyl-1H-pyrazolo[3,4-b]pyridin-5-yl)amino)benzyl)piperazin-1-yl)ethanol] | > 1000 nM | > 1000 nM | – |
| Cc1n[nH]c2ncc(Nc3ccc(CN4CCN(C)CC4)cc3)cc12 [Compound 167, 3-methyl-N-(4-((4-methylpiperazin-1-yl)methyl)phenyl)-1H-pyrazolo[3,4-b]pyridin-5-amine] | > 1000 nM | > 1000 nM | – |
| Cc1n[nH]c2ncc(Nc3cncc(Cl)n3)cc12 [Compound 171, N-(6-chloropyrazin-2-yl)-3-methyl-1H-pyrazolo[3,4-b]pyridin-5-amine] | > 1000 nM | > 1000 nM | – |

Continued, values first:

| IC50 [1] | IC50 [2] | IC50 [3] | Structure (SMILES) |
| --- | --- | --- | --- |
| > 500 nM | > 500 nM | – | Cc1n[nH]c2ncc(-c3cncnc3NC3CCN(C)CC3)cc12 [Compound 19, 5-(3methyl-1H-pyrazolo[3,4-b]pyridine-5yl)-N-(1-methylpiperidine-4yl)pyrimidin-4-amine] |
| > 500 nM | > 500 nM | > 500 nM | Cc1n[nH]c2ncc(NC3CCCN(Cc4ccc(F)cc4)C3)cc12 (stereo not shown) [Compound 22, N-(1-(4-fluorobenzyl)piperidine-3-yl)-3-methyl-1H-pyrazolo[3,4-b]pyridine-5-amine] |
| > 500 nM | > 500 nM | > 1000 nM | Cc1n[nH]c2ncc(-c3cncc(N4CCCC4=O)n3)cc12 [Compound 48, 1-(6-(3-methyl-1H-pyrazolo[3,4-b]pyridin-5-yl)pyrazin-2-yl)pyrrolidin-2-one] |
| > 500 nM | > 500 nM | > 1000 nM | Cc1n[nH]c2ncc(-c3cncc(NC4CCN(C)C4)n3)cc12 (stereo not shown) [Compound 51, 6-(3-methyl-1H-pyrazolo[3,4-b]pyridin-5-yl)-N-(1-methylpyrrolidin-3-yl)pyrazin-2-amine] |
| > 1000 nM | > 1000 nM | – | Cc1n[nH]c2ncc(-c3cccc(S(=O)(=O)N(C)C)c3)cc12 [Compound 111, N, N-dimethyl-3-(3-methyl-1H-pyrazolo[3,4-b]pyridin-5-yl)benzenesulfonamide] |
| > 1000 nM | > 1000 nM | – | CC(=O)Nc1cccc(-c2cnc3[nH]nc(C)c3c2)c1 [Compound 114, N-(3-(3-methyl-1H-pyrazolo[3,4-b]pyridin-5-yl)phenyl)acetamide] |
| > 1000 nM | > 1000 nM | – | Cn1cc(-c2cnc3[nH]ncc3c2)cn1 [Compound 117, 5-(1-methyl-1H-pyrazol-4-yl)-1H-pyrazolo[3,4-b]pyridine] |
| > 1000 nM | > 1000 nM | – | CCOC(=O)c1cccc(-c2cnc3[nH]nc(C)c3c2)c1 [Compound 119, ethyl 3-(3-methyl-1H-pyrazolo[3,4-b]pyridin-5-yl)benzoate] |
| > 1000 nM | > 1000 nM | – | Cc1n[nH]c2ncc(-c3cccc(CN4CCN(C)CC4)c3)cc12 [Compound 123, 3-methyl-5-(3-((4-methylpiperazin-1-yl)methyl)phenyl)-1H-pyrazolo[3,4-b]pyridine] |
| > 500 nM | > 500 nM | – | CN1CC(Nc2cncc(-c3cnc4[nH]ccc4c3)n2)C1 [Compound 130, N-(1-methylazetidin-3-yl)-6-(1H-pyrrolo[2,3-b]pyridin-5-yl)pyrazin-2-amine] |
| > 500 nM | > 500 nM | – | O=C1CN(c2cncc(-c3cnc4[nH]ccc4c3)n2)CCN1 [Compound 133, 4-(6-(1H-pyrrolo[2,3-b]pyridin-5-yl)pyrazin-2-yl)piperazin-2-one] |
| > 1000 nM | > 1000 nM | – | C=CC(=O)Nc1cccc(-c2cnc3[nH]nc(C)c3c2)c1 [Compound 155, N-(3-(3-methyl-1H-pyrazolo[3,4-b]pyridin-5-yl)phenyl)acrylamide] |
| > 1000 nM | > 1000 nM | – | Cc1n[nH]c2ncc(Nc3ccc(N4CCN(C)CC4)c(F)c3)cc12 [Compound 170, N-(3-fluoro-4-(4-methylpiperazin-1-yl)phenyl)-3-methyl-1H-pyrazolo[3,4-b]pyridin-5-amine] |
